From PMC4899784, “LTP-1, a novel antimitotic agent and Stat3 inhibitor, inhibits human pancreatic carcinomas in vitro and in vivo” (Scientific Reports, 2016)

Tests used:
[1] = biological target: T1, tubulin (α/β-tubulin heterodimer) (Sus scrofa, UniProt P02550+P02554); assay: cell-free tubulin polymerization assay (absorbance at […] nm), inhibition; format: biochemical
T1 construct: gene TUBA1A; with α/β-tubulin heterodimer

[2] = biological target: T1, tubulin (α/β-tubulin heterodimer); assay: cell-free tubulin polymerization assay (absorbance at […] nm), enhancement; format: biochemical

T1 sequence (P02550 whole entry): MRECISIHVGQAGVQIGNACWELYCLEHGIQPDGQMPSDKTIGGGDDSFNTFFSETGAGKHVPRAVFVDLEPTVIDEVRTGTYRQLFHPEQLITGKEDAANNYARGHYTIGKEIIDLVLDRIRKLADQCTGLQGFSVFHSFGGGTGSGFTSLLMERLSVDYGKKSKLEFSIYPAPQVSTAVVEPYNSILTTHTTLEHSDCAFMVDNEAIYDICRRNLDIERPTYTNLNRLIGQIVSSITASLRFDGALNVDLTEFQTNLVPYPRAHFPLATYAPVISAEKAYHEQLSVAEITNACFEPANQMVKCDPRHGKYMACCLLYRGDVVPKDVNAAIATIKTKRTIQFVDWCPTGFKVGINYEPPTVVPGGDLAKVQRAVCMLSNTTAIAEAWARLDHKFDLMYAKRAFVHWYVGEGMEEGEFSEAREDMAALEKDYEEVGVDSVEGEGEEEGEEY
T1 sequence (P02554 whole entry): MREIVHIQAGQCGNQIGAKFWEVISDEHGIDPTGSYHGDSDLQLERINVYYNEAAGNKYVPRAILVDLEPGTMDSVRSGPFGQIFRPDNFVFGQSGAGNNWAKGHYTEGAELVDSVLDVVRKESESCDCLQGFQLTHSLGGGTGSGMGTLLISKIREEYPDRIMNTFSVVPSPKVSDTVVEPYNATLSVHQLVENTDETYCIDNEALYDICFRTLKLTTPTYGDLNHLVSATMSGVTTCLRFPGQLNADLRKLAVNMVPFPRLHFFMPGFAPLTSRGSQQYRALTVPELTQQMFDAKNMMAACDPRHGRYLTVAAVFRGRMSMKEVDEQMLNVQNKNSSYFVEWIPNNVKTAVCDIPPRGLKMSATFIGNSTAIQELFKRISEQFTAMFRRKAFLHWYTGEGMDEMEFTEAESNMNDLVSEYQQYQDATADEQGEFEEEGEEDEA

Compound | cell-free tubulin polymerization assay (absorbance at 340 nm), inhibition [1] | cell-free tubulin polymerization assay (absorbance at 340 nm), enhancement [2]
COc1ccc(S(=O)(=O)Nc2ccccc2-c2ccc(C#N)cc2)cc1 [LTP-1] | LTP-1 acted like vincristine, to inhibit tubulin polymerization in a concentration-dependent manner | –
CC(=O)O[C@H]1C(=O)[C@@]2(C)[C@H]([C@H](OC(=O)c3ccccc3)[C@]3(O)C[C@H](OC(=O)[C@H](O)[C@@H](NC(=O)c4ccccc4)c4ccccc4)C(C)=C1C3(C)C)[C@]1(OC(C)=O)CO[C@@H]1C[C@@H]2O [paclitaxel] | – | Paclitaxel enhanced microtubule assembly and mitotic spindle formation, whereas LTP-1 and vincristine disrupted microtubule formation (Fig. 2A)
